The record followed here is patent publication US20230310573A1, “Stabilized Vaccine Compositions” (priority 2020, published 2023).

This series addresses T1, RSV pre-fusion F protein of SEQ ID NO: 10 (Human respiratory syncytial virus A, UniProt P03420, D486N/DEL108-136/I379V/M447V/N67I/P102A/S215P).
T1 construct: made in house
Put plainly: Thermo-stability (Tm50) of RSV pre-fusion F by Differential Scanning Fluorimetry (DSF). Format: physicochemical. On the procedure: Thermo-stability of the RSV pre-fusion F protein of SEQ ID NO: 10 was determined by Differential Scanning Fluorimetry (DSF) by monitoring the fluorescent emission of Sypro Orange Dye (ThermoFisher Scientific) in a 96 well optical qPCR plate. Inhibitors were diluted in DMSO prior to the experiment. Same amount of DMSO was added to pre-fusion F protein without inhibitor. To each well, 5 μl of 20× Sypro orange solution was added. Upon gradual increase of the temperature, from 25° C. to 95° C. (0.015° C./s), the polypeptides unfold and the fluorescent dye binds to the exposed hydrophobic residues leading to a characteristic change in emission. The melting curves were measured using a ViiA7 real time PCR machine (Applied Biosystems). The 1st derivative of the fluorescent signal (a.u.) versus the temperature (° C.) of three individual samples (technical triplicate), as well as the averaged melting curve, were plotted with Graphpad Prism software (Dan Diego, CA, US). From the averaged melting curve, the Tm50 was deducted (lowest point on the curve). The Tm50 values represent the temperature at which 50% of the protein is unfolded and thus are a measure for the temperature stability of the polypeptides. The increase of the Tm50 is reported as difference of the Tm50 of pre-fusion F protein with stabilizing antiviral compound compared with the Tm50 of pre-fusion F protein with only addition of DMSO (i.e. without antiviral compound).
(§1) Vials were frozen to −70° C. in 24 hours under controlled conditions. Samples were subsequently thawed to RT and analyzed by analytical Size Exclusion Chromatography (SEC) to measure loss of RSV F trimer compared the sample that was kept at 4° C. In addition, the dialyzed materials with and without stabilizing compound III were evaluated in DSF to measure the melting temperature. For experimental details see example 2.
as §1, with “Each formulation (pre and post UF/DF samples) was diluted to 0.3 mg/ml. 0.75 ml of each formulation was filled in glass injection vials with rubber stopper and sealed with aluminum caps. Vials” for “Vials”, “different formulations” for “dialyzed materials”
Each formulation (pre and post dialysis samples) was diluted to 0.3 mg/ml. 0.75 ml of each formulation was filled in glass injection vials with rubber stopper and sealed with aluminum caps. Vials were slowly frozen to −70° C. in 24 hours. Samples were subsequently thawed to RT and analyzed by analytical Size Exclusion Chromatography (SEC) to measure loss of RSV F trimer compared the sample that was kept at 4° C. In addition, the different formulations with and without compound III were evaluated in DSF to measure the melting temperature. For experimental details see example 2.
(DSF heats the sample and reads unfolding from a dye or from intrinsic fluorescence.)

As to `CS(=O)(=O)CCCn1c(Cn2c(=O)n(C3CC3)c3ccncc32)nc2cc(Br)ccc21` [Compound III, 3-[[5-bromo-1-(3-methylsulfonylpropyl)benzimidazol-2-yl]methyl]-1-cyclopropyl-imidazo[4,5-c]pyridin-2-one], the “Tm50 (DSF) after buffer exchange” value (1:50, Formulation 1 and 2 without PS20, AP1) is “increased the Tm50 irrespective of the buffer”. The “Tm50 (DSF) after UF/DF” value (compound in the protein and in the diavolume) is “yielded the highest Tm50”. Moreover, the “Tm50 (DSF), 1:30 ratio vs 1:3 ratio” value (dialysis experiment) was “yielded a higher Tm50 than a 1:3 ratio”. Moreover, the “Tm50 (DSF) vs samples without compound” value (pre- and post-dialysis samples) is reported as “higher”. Besides, the “Tm50 (DSF) over time after dialysis” value (stored at 4° C., Day 0, 21, 84) is reported as “remained relatively constant”.
